US20080221100A1, “SOLUBLE EPOXIDE HYDROLASE INHIBITORS” (Arete Therapeutics, Inc., priority 2006, published 2008)

tested on: not given; test: not given; details: not given

| SMILES | melting point [°C] |
| --- | --- |
| O=C(Nc1ccc(F)cc1)NC1CCN(S(=O)(=O)c2ccc(Cl)cc2)CC1 [Compound 19, 1-[1-(4-Chloro-benzenesulfonyl)-piperidin-4-yl]-3-(4-fluoro-phenyl)-urea] | 160 to 162 |
| CC(=O)N1CCC(NC(=O)Nc2ccc(F)cc2)CC1 [Compound 21, 1-(1-Acetyl-piperidin-4-yl)-3-(4-fluoro-phenyl)-urea] | 146 to 148 |
| O=C(Nc1cccc(F)c1)NC1CCN(S(=O)(=O)c2ccccc2)CC1 [Compound 22, 1-(1-Benzenesulfonyl-piperidin-4-yl)-3-(3-fluoro-phenyl)-urea] | 186 to 188 |
| O=C(Nc1cccc(F)c1)NC1CCN(S(=O)(=O)c2ccc(Cl)cc2)CC1 [Compound 23, 1-[1-(4-Chloro-benzenesulfonyl)-piperidin-4-yl]-3-(3-fluoro-phenyl)-urea] | 245 to 248 |
| CS(=O)(=O)N1CCC(NC(=O)Nc2ccc(F)cc2)CC1 [Compound 27, 1-(4-Fluoro-phenyl)-3-(1-methanesulfonyl-piperidin-4-yl)-urea] | 186 to 188 |
| CC(=O)N1CCC(NC(=O)Nc2ccc(Br)cc2)CC1 [Compound 43, 1-(1-acetylpiperidin-4-yl)-3-(4-bromophenyl)urea] | 213 to 216 |
| CC(C)S(=O)(=O)N1CCC(NC(=O)Nc2ccc(Br)cc2)CC1 [Compound 44, 1-(4-bromophenyl)-3-(1-(isopropylsulfonyl)piperidin-4-yl)urea] | 240 to 242 |
| CC(C)C(=O)N1CCC(NC(=O)Nc2ccc(Br)cc2)CC1 [Compound 46, 1-(4-bromophenyl)-3-(1-isobutyrylpiperidin-4-yl)urea] | 193 to 204 |

tested on: soluble epoxide hydrolase (sEH); test: Fluorescent assay for mouse and human soluble epoxide hydrolase (CMNPC substrate); type: biochemical, mouse or human, not specified; details: Conc 50 nM
Source text: Fluorescent Assay for Mouse and Human Soluble Epoxide Hydrolase Recombinant mouse sEH (MsEH) and human sEH (HsEH) were produced in a baculovirus expression system as previously reported. Grant et al., J. Biol. Chem., 268:17628-17633 (1993); Beetham et al., Arch. Biochem. Biophys., 305:197-201 (1993). The expressed proteins were purified from cell lysate by affinity chromatography. Wixtrom et al., Anal. Biochem., 169:71-80 (1988). Protein concentration was quantified using the Pierce BCA assay using bovine serum albumin as the calibrating standard. […] They contained no detectable esterase or glutathione transferase activity which can interfere with the assay. The assay was also evaluated with similar results in crude cell lysates or homogenate of tissues. The IC50s for each inhibitor were determined according to the following procedure: Substrate: [drawing 155] […] Jones P. D. et al.; Analytical Biochemistry 2005; 343: pp. 66-75) Solutions: Bis/Tris HCl 25 mM pH 7.0 containing 0.1 mg/mL of BSA (buffer […] at 0.25 mM in DMSO. Mother solution of enzyme in buffer A (Mouse sEH at 6 μg/mL and Human sEH at 5 μg/mL). Inhibitor dissolved in DMSO at the appropriate concentration. Protocol: In a black 96 well plate, fill all the wells with 150 μL of buffer A. Add 2 μL of DMSO in well A2 and A3, and then add 2 μL of inhibitor solution in A1 and A4 through A12. Add 150 μL of buffer A in row A, then mix several time and transfer 150 μL to row B. Repeat this operation up to row H. The 150 μL removed from row H is discarded. Add 20 μL of buffer A in column 1 and 2, then add 20 μL of enzyme solution to column 3 to 12. Incubate the plate for 5 minutes in the plate reader at 30° C. During incubation prepare the working solution of substrate by mixing 3.68 mL of buffer A (4×0.920 mL) with 266 μL (2×133 μL) of substrate solution). At t=0, add 30 μL of working substrate solution with multi-channel pipette labeled “Briggs 303” and start the reading ([S]final: 5 μM). Read with ex: 330 nm (20 nm) and em: 465 nm (20 nm) every 30 second for 10 minutes. The velocities are used to analyze and calculate the IC50s.

| SMILES | % Inhibition [%] |
| --- | --- |
| CC(C)CC(=O)N1CCC(NC(=O)Nc2ccc(C(F)(F)F)cc2)CC1 [Compound 6, 1-[1-(3-Methyl-butyryl)-piperidin-4-yl]-3-(4-trifluoromethyl-phenyl)-urea] | 94 |
| O=C(Nc1ccc(C(F)(F)F)cc1)NC1CCN(C(=O)c2cccnc2)CC1 [Compound 8, 1-[1-(Pyridine-3-carbonyl)-piperidin-4-yl]-3-(4-trifluoromethyl-phenyl)-urea] | 94 |
| O=C(Nc1ccc(C(F)(F)F)cc1)NC1CCN(C(=O)c2ccccn2)CC1 [Compound 9, 1-[1-(Pyridine-2-carbonyl)-piperidin-4-yl]-3-(4-trifluoromethyl-phenyl)-urea] | 94 |
| O=C(Nc1ccc(F)cc1)NC1CCN(C(=O)c2ccc(C(=O)O)cc2)CC1 [Compound 10, 4-{4-[3-(4-Fluoro-phenyl)-ureido]-piperidine-1-carbonyl}-benzoic acid] | 75 |
| O=C(Nc1ccc(C(F)(F)F)cc1)NC1CCN(C(=O)c2ccc(C(=O)O)cc2)CC1 [Compound 11, 4-{4-[3-(4-Trifluoromethyl-phenyl)-ureido]-piperidine-1-carbonyl}-benzoic acid] | 98 |
| O=C(Nc1ccc(F)cc1)NC1CCN(S(=O)(=O)c2cccc(C(F)(F)F)c2)CC1 [Compound 12, 1-(4-Fluoro-phenyl)-3-[1-(3-trifluoromethyl-benzenesulfonyl)-piperidin-4-yl]-urea] | 90 |
| O=C(Nc1ccc(F)cc1)NC1CCN(S(=O)(=O)c2ccccc2)CC1 [Compound 13, 1-(1-Benzenesulfonyl-piperidin-4-yl)-3-(4-fluoro-phenyl)-urea] | 79 |
| O=C(Nc1ccc(F)cc1)NC1CCN(S(=O)(=O)c2ccc(C(F)(F)F)cc2)CC1 [Compound 14, 1-(4-Fluoro-phenyl)-3-[1-(4-trifluoromethyl-benzenesulfonyl)-piperidin-4-yl]-urea] | 89 |
| O=C(Nc1ccc(Cl)cc1)NC1CCN(S(=O)(=O)c2ccc(C(=O)O)cc2)CC1 [Compound 15, 4-{4-[3-(4-Chloro-phenyl)-ureido]-piperidine-1-sulfonyl}-benzoic acid] | 75 |
| O=C(Nc1ccc(C(F)(F)F)cc1)NC1CCN(S(=O)(=O)c2ccc(C(=O)O)cc2)CC1 [Compound 16, 4-{4-[3-(4-Trifluoromethyl-phenyl)-ureido]-piperidine-1-sulfonyl}-benzoic acid] | 80 |
| O=C(Nc1ccc(C(F)(F)F)cc1)NC1CCN(S(=O)(=O)c2ccccc2)CC1 [Compound 17, 1-(1-Benzenesulfonyl-piperidin-4-yl)-3-(4-trifluoromethyl-phenyl)-urea] | 90 |
| O=C(Nc1ccc(C(F)(F)F)cc1)NC1CCN(S(=O)(=O)c2ccc(Cl)cc2)CC1 [Compound 18, 1-[1-(4-Chloro-benzenesulfonyl)-piperidin-4-yl]-3-(4-trifluoromethyl-phenyl)-urea] | 90 |
| O=C(Nc1ccc(C(F)(F)F)cc1)NC1CCN(S(=O)(=O)c2cccc(C(F)(F)F)c2)CC1 [Compound 20, 1-[1-(3-Trifluoromethyl-benzenesulfonyl)-piperidin-4-yl]-3-(4-trifluoromethyl-phenyl)-urea] | 96 |
| O=C(Nc1cccc(F)c1)NC1CCN(S(=O)(=O)c2ccccc2)CC1 [Compound 22, 1-(1-Benzenesulfonyl-piperidin-4-yl)-3-(3-fluoro-phenyl)-urea] | 82 |
| O=C(Nc1cccc(F)c1)NC1CCN(S(=O)(=O)c2ccc(Cl)cc2)CC1 [Compound 23, 1-[1-(4-Chloro-benzenesulfonyl)-piperidin-4-yl]-3-(3-fluoro-phenyl)-urea] | 91 |
| CS(=O)(=O)N1CCC(NC(=O)Nc2cccc(C(F)(F)F)c2)CC1 [Compound 24, 1-(1-Methanesulfonyl-piperidin-4-yl)-3-(3-trifluoromethyl-phenyl)-urea] | 86 |
| CC(=O)N1CCC(NC(=O)Nc2cccc(C(F)(F)F)c2)CC1 [Compound 25, 1-(1-Acetyl-piperidin-4-yl)-3-(3-trifluoromethyl-phenyl)-urea] | 68 |
| O=C(Nc1cccc(C(F)(F)F)c1)NC1CCN(S(=O)(=O)c2ccccc2)CC1 [Compound 26, 1-(1-Benzenesulfonyl-piperidin-4-yl)-3-(3-trifluoromethyl-phenyl)-urea] | 90 |
| CS(=O)(=O)N1CCC(NC(=O)Nc2ccc(F)cc2)CC1 [Compound 27, 1-(4-Fluoro-phenyl)-3-(1-methanesulfonyl-piperidin-4-yl)-urea] | 80 |
| O=C(Nc1cccc(C(F)(F)F)c1)NC1CCN(S(=O)(=O)c2ccc(C(F)(F)F)cc2)CC1 [Compound 29, 1-[1-(4-Trifluoromethyl-benzenesulfonyl)-piperidin-4-yl]-3-(3-trifluoromethyl-phenyl)-urea] | 95 |
| O=C(Nc1ccc(C(F)(F)F)cc1)NC1CCN(C(=O)Cc2c[nH]cn2)CC1 [Compound 33, 1-[1-(2-1H-Imidazol-4-yl-acetyl)-piperidin-4-yl]-3-(4-trifluoromethyl-phenyl)-urea] | 72 |
| Cn1cnc(C(=O)N2CCC(NC(=O)Nc3ccc(C(F)(F)F)cc3)CC2)c1 [Compound 35, 1-[1-(1-Methyl-1H-imidazole-4-carbonyl)-piperidin-4-yl]-3-(4-trifluoromethyl-phenyl)-urea] | 89 |
| CC(C)S(=O)(=O)N1CCC(NC(=O)Nc2ccc(C(F)(F)F)cc2)CC1 [Compound 42, 1-(1-(Isopropylsulfonyl)piperidin-4-yl)-3-(4-(trifluoromethyl)phenyl)urea] | 93 |

same assay, conditions: Conc 200 nM

| SMILES | % Inhibition [%] |
| --- | --- |
| CC(C)C(=O)N1CCC(NC(=O)Nc2ccc(C(F)(F)F)cc2)CC1 [Compound 45, 1-(1-isobutyrylpiperidin-4-yl)-3-(4-(trifluoromethyl)phenyl)urea] | 97 |
| CC(C)(C)CC(=O)N1CCC(NC(=O)Nc2ccc(C(F)(F)F)cc2)CC1 [Compound 48, 1-(1-(3,3-dimethylbutanoyl)piperidin-4-yl)-3-(4-(trifluoromethyl)phenyl)urea] | 100 |

same assay, conditions: Conc 500 nM

| SMILES | % Inhibition [%] |
| --- | --- |
| O=C(Nc1ccc(F)c(F)c1)NC1CCN(C(=O)CCCN2CCOCC2)CC1 [Compound 2, 1-(3,4-Difluoro-phenyl)-3-[1-(4-morpholin-4-yl-butyryl)-piperidin-4-yl]-urea] | 70 |
| O=C(Nc1ccc(F)cc1)NC1CCN(C(=O)c2cccnc2)CC1 [Compound 7, 1-(4-Fluoro-phenyl)-3-[1-(pyridine-3-carbonyl)-piperidin-4-yl]-urea] | 89 |
| O=C(Nc1ccc(F)cc1)NC1CCN(S(=O)(=O)c2ccc(Cl)cc2)CC1 [Compound 19, 1-[1-(4-Chloro-benzenesulfonyl)-piperidin-4-yl]-3-(4-fluoro-phenyl)-urea] | 85 |
| CC(=O)N1CCC(NC(=O)Nc2ccc(F)cc2)CC1 [Compound 21, 1-(1-Acetyl-piperidin-4-yl)-3-(4-fluoro-phenyl)-urea] | 74 |
| O=C(Nc1ccc(Cl)cc1)NC1CCN(C(=O)Cc2c[nH]cn2)CC1 [Compound 34, 1-(4-Chloro-phenyl)-3-[1-(2-1H-imidazol-4-yl-acetyl)-piperidin-4-yl]-urea] | 80 |

same assay, conditions: Conc 5000 nM

| SMILES | % Inhibition [%] |
| --- | --- |
| O=C(Nc1ccccc1)NC1CCN(C(=O)CCCN2CCOCC2)CC1 [ComparativeExample 1, 1-[1-(4-Morpholin-4-yl-butyryl)-piperidin-4-yl]-3-phenyl-urea, reference compound] | 96 |
| CC(=O)N1CCC(NC(=O)Nc2ccccc2)CC1 [ComparativeExample 5, 1-(1-Acetyl-piperidin-4-yl)-3-phenyl-urea, reference compound] | 80 |
